Source: patent US9963518B2, “Cyclic oligosaccharides for use in the treatment and prevention of bacterial infection” (priority 2011, dated 2018)
Like-named read-outs stand apart in the source and are kept apart here.

Key:
[1] = target: WT Wza (Escherichia coli, UniProt Q9X4B7); assay: Single-channel electrical recording, blockers against wt-Wza in planar lipid bilayers; format: binding, E. coli; conditions: for Interaction with WT Wza: 2M KCl, 5 mM HEPES, 100 μM EDTA, 200 μM DTT, pH 7.5
Method: The Wt Wza transporter was tested in single-channel recording, in accordance with the procedures of Naismith (Nature 2006, 444, 226-229) for its ability to form pores in planar lipid bilayers. Sequential insertions of channels in a single orientation were used to measure the conductance of a single channel because more than one channel could insert simultaneously during the first introduction, especially when protein molecules have not properly diffused yet. Repetition of experiments helped to verify conductance of a single channel. […] After collection of 37 insertions of wt Wza channel, the current of a single channel of wt Wza in 2 M KCl buffer was determined to be 1.89±0.01 pA (n=37) on average, corresponding to 18.9±0.1 pS (n=37) in conductance.
(§1) Thirteen commercial cyclodextrins (CDs) were tested for their ability to block WT-Wza and the mutant Y110G/K375C (Table 1) including, neutral, negatively charged or positively charged cyclodextrins. Testing was carried out using electrical channel recording in high salt buffer (2M KCl, 5 mM HEPES, 100 μM EDTA, 200 μM DTT) at pH 7.5.

[2] = tested on: E. coli strain E69; assay: LPS exposure assay, O9a LPS to O9a LPS-specific antibodies (FACS); format: cell-based; conditions: 1 mM, antiserum incubation 1 h; for LPS exposure by median fluorescence intensity: relative to CWG281 positive control
Method: The direct effect of the inhibition of K30 CPS transport on E. coli strain E69 is the appearance of defects in the capsule layer. This should in turn lead to exposure of O9a LPS at the cell surface. To test this hypothesis, the attachment of rabbit anti-O9a antibodies was quantified by flow cytometry (FACS), by using secondary fluorescent anti-rabbit antibodies. The design of the experiment is depicted schematically in FIG. 4a.
E. coli strains E69 and CWG281 were grown as described above in Example 4 and the OD600 was adjusted to 0.4. The concentrations of cyclodextrin (either am8γCD (compound 13), am6αCD (compound 3) or am7βCD (compound 10)) present in the growth media were 10 nM, 100 nM, 1 μM, 10 μM, 50 μM, 100 μM and 1 mM. 50 μL samples of each were centrifuged at 3,000×g for 10 min to remove the medium, washed with PBS and resuspended in 50 μL PBS. O9a antiserum (0.5 μL) was then added. The mixtures were incubated on ice for 1 h (to compare the effects of am6αCD, am7βCD and am8γCD on the exposure of LPS) or 2 h (for the estimation of minimum effective concentration of am8γCD required to expose LPS to antibodies), followed by centrifugation at 3,000×g for 10 min and washing with PBS. The pellets were resuspended in PBS (50 μL), to which Alexa Fluor 488 Goat Anti-Rabbit IgG secondary antibody (1 μL, Life Technologies, A11034, λex 495 nm, λem 519 nm) was added, followed by incubation for 1 h on ice. The cells were then centrifuged at 3,000×g for 10 min. The pellets were resuspended in PBS (1 mL), followed by analysis by flow cytometry (FACS) using a Becton-Dickinson FACSCalibur. 10,000 cells were analysed for each sample. Fluorescence was measured in the FL1 channel (530 nm).

[3] = target: Wza Y110G/K375C (Escherichia coli, UniProt Q9X4B7, K375C/Y110G); assay: Single-channel electrical recording, blockers against mutant Wza Y110G/K375C; format: binding, E. coli; conditions: Y110G/K375C; for Kd: n = 3, 2M KCl buffer pH 7.5
Method: The Wza pore was opened by replacing the tyrosines at position 110 that line the narrowest region of the lumen with glycine. To confirm that the currents observed indeed arose from the mutant pore, a cysteine was introduced in the α-helix barrel (Y110G/K375C) and would therefore yield a characteristic reversible blockade when derivatized with a suitable thiol-specific reagent.
The unitary conductance of the Y110G/K375C pore was determined as for wt-Wza, by measuring stepwise-insertion using the same technique referenced above. The mean open current of Y110G/K375C was determined to be +85±14.1 pA (+50 mV, n=31), corresponding to 1.70±0.28 nS (+50 mV, n=31) in conductance.
as §1

| Structure (SMILES) | Interaction with WT Wza [1] | LPS exposure by percentage of labelled cells [2] [%] | LPS exposure by median fluorescence intensity [2] [%] | Interaction with mutant Wza ([3]; 2M KCl, 5 mM HEPES, 100 μM EDTA, 200 μM DTT, pH 7.5) | Kd ([3]; +3 mV, read-out: Kd, interaction with mutant Wza) [µM] | Kd [1] [µM] | Kd ([3]; Kd, interaction with mutant Wza, +3 mV) [µM] | Kd ([3]; Kd, interaction with mutant Wza, +75 mV) [µM] |
| --- | --- | --- | --- | --- | --- | --- | --- | --- |
| NCC1OC2OC3C(CN)OC(OC4C(CN)OC(OC5C(CN)OC(OC6C(CN)OC(OC7C(CN)OC(OC1C(O)C2O)C(O)C7O)C(O)C6O)C(O)C5O)C(O)C4O)C(O)C3O (stereo not drawn) [No. 3, hexakis (6-amino-6-deoxy)-α-cyclodextrin] | not observed | 36 | 3.2 | – | – | – | – | – |
| NC[C@H]1O[C@@H]2O[C@H]3[C@H](O)[C@@H](O)[C@@H](O[C@H]4[C@H](O)[C@@H](O)[C@@H](O[C@H]5[C@H](O)[C@@H](O)[C@@H](O[C@H]6[C@H](O)[C@@H](O)[C@@H](O[C@H]7[C@H](O)[C@@H](O)[C@@H](O[C@H]8[C@H](O)[C@@H](O)[C@@H](O[C@H]1[C@H](O)[C@H]2O)O[C@@H]8CN)O[C@@H]7CN)O[C@@H]6CN)O[C@@H]5CN)O[C@@H]4CN)O[C@@H]3CN [No. 4, heptakis (6-amino-6-deoxy)-β-cyclodextrin] | not observed | 9 | 1.8 | not observed^b | 2900 ± 1800 | – | – | – |
| NC[C@H]1O[C@@H]2O[C@H]3[C@H](O)[C@@H](O)[C@@H](O[C@H]4[C@H](O)[C@@H](O)[C@@H](O[C@H]5[C@H](O)[C@@H](O)[C@@H](O[C@H]6[C@H](O)[C@@H](O)[C@@H](O[C@H]7[C@H](O)[C@@H](O)[C@@H](O[C@H]8[C@H](O)[C@@H](O)[C@@H](O[C@H]1[C@H](O)[C@H]2O)O[C@@H]8CN)O[C@@H]7CN)O[C@@H]6CN)O[C@@H]5CN)O[C@@H]4CN)O[C@@H]3CN [compound 4] | – | – | – | – | – | 13000 | 2900 | 2100 |
